From BindingDB's records for doi:10.7270/Q2HQ3XCR (Nmmlsc, 2009)

Each compound was assayed against T1, Bcl-2-related protein A1 (Homo sapiens, UniProt Q16548) (assay: Bfl-1/Bim complex disruptors – biochemical, multiplexed, bead-based flow cytometry, HTS hits, confirmation (AID 2080)). Conditions: not given.
T1 sequence (Q16548 whole entry): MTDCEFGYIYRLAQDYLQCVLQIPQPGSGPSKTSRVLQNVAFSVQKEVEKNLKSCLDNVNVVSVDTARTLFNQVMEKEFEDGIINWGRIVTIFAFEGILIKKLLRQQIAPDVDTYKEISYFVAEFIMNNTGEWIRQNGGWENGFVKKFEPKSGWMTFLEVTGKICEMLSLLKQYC
`O=C1C(Cl)=C(N2CCN(c3ccccc3[N+](=O)[O-])CC2)C(=O)c2ccccc21` gave an EC50 of 2.68 µM. `O=c1[nH]c(O)c(Cc2ccc(-c3cc(Cl)ccc3[N+](=O)[O-])o2)c(=O)[nH]1` gave an EC50 of 0.81 µM. Compound `O=C(NCc1ccccc1)c1ccc2nc(-c3ccco3)c(-c3ccco3)nc2c1` [2,3-bis(furan-2-yl)-N-(phenylmethyl)quinoxaline-6-carboxamide] has an EC50 of 8.1 µM. For `Cc1nnc(Sc2cc(NCCO)c([N+](=O)[O-])c3nonc23)s1` [2-[[7-[(5-methyl-1,3,4-thiadiazol-2-yl)thio]-4-nitro-2,1,3-benzoxadiazol-5-yl]amino]ethanol], the EC50 was 0.82 µM. For `Cc1ccc(-c2cc(-c3ccc(C)o3)nc(N)c2C#N)cc1` [2-amino-6-(5-methylfuran-2-yl)-4-(4-methylphenyl)pyridine-3-carbonitrile], the EC50 was 5.44 µM. For `Cc1cc(-c2cc(-c3ccc(Cl)cc3)nc(N)c2C#N)co1` [2-azanyl-6-(4-chlorophenyl)-4-(5-methylfuran-3-yl)pyridine-3-carbonitrile], the EC50 was 4.92 µM. For `COc1ccc(N2C(=O)C(Cl)=C(Oc3cccc(OC)c3)C2=O)cc1` [3-chloro-4-(3-methoxyphenoxy)-1-(4-methoxyphenyl)-1H-pyrrole-2,5-dione], the EC50 was 1.06 µM. Work on `CNC(CC(=O)c1ccc([N+](=O)[O-])cc1)C(Cl)(Cl)Cl` (configuration not stated) [4,4,4-Trichloro-3-methylamino-1-(4-nitro-phenyl)-butan-1-one] yielded an EC50 of 3.97 µM. `C=CS(=O)(=O)c1sc(Cl)c(N2CCOCC2)c1[N+](=O)[O-]` [4-(2-chloranyl-5-ethenylsulfonyl-4-nitro-thiophen-3-yl)morpholine] showed an EC50 of 3.57 µM. For `COc1cc(/N=C2\SSNC2Cl)c(OC)cc1Cl` (configuration not stated) [4-chloro-N-(4-chloro-2,5-dimethoxyphenyl)-5-dithiazolidinimine], the EC50 was 5.78 µM. Compound `O=[N+]([O-])c1c(NCCCO)cc(Sc2nc3ccccc3s2)c2nonc12` [MLS000520994] has an EC50 of 0.26 µM. Compound `CN(CCO)c1cc(Sc2nc3ccccc3s2)c2nonc2c1[N+](=O)[O-]` [MLS000520995] has an EC50 of 0.72 µM. With `CC(=O)OCCCNc1cc(Sc2nc3ccccc3s2)c2nonc2c1[N+](=O)[O-]` [MLS000521052] the EC50 was 0.17 µM. For `CC(=O)Nc1ccc(-n2cc(-c3ccccc3)[nH]c2=S)cc1` [MLS001001946], the EC50 was 2.05 µM. Compound `COc1ccccc1-n1c(-c2ccccc2)c[nH]c1=S` [MLS001007615] has an EC50 of 1.23 µM. For `COc1ccccc1NC1=C(NC(C)=O)C(=O)c2ccccc2C1=O` [N-[3-(2-methoxyanilino)-1,4-dioxonaphthalen-2-yl]acetamide], the EC50 was 1.84 µM. In the case of `O=C(Nc1nnc(COc2ccc(Cl)cc2)s1)c1ccco1` [N-[5-[(4-chloranylphenoxy)methyl]-1,3,4-thiadiazol-2-yl]furan-2-carboxamide], the EC50 is reported as 3.09 µM. For `Cc1cc2nn(-c3cccc4ccccc34)nc2cc1N` [SMR000076237], the EC50 was 1.51 µM. In the case of `S=c1[nH]cc(-c2ccccc2)n1-c1ccccc1` [SMR000196363], the EC50 is reported as 3 µM. `CCN1C(=O)/C(=C\C=C2/C=CC=CN2CC)SC1=S` [SMR000225150] showed an EC50 of 2.32 µM. In the case of `Oc1ccc(NCc2ccccc2OCc2ccccc2)cc1` [SMR000231540], the EC50 is reported as 8.06 µM.

Same assay, conditions: inactive by the depositor's call
In the case of `Cc1ccc(-c2cc(-c3ccc(F)cc3)c(C#N)c(N)n2)o1`, the EC50 is reported as 20 µM. `CCN(CC)c1ccc(NC(=O)c2ccccc2Br)cc1S(=O)(=O)Nc1ccccc1OC` gave an EC50 of 10.7 µM. Work on `O=C1C(=Cc2ccco2)NC(=S)N1c1ccccc1` [(5E)-5-(furan-2-ylmethylidene)-3-phenyl-2-sulfanylideneimidazolidin-4-one] yielded an EC50 of 17.4 µM. With `Clc1nc(NCc2cccnc2)nc(N2CCOCC2)n1` [MLS000121154] the EC50 was 20 µM. Compound `COc1ccc(CCNC(=O)c2ccc3nc(-c4ccco4)c(-c4ccco4)nc3c2)cc1OC` [N-[2-(3,4-dimethoxyphenyl)ethyl]-2,3-di-2-furylquinoxaline-6-carboxamide] has an EC50 of 15.4 µM. `CCN(CC)c1ccc(NC(=O)c2ccccc2F)cc1S(=O)(=O)Nc1ccccc1OC` [SMR000241522] showed an EC50 of 25.8 µM.
